# Measured values as given in US20160115540A1, “PRODRUGS AND DRUGS” (Biogen MA Inc., priority 2013, published 2016).
# Where a name gives a salt, the structure may show the parent alone.
# Tested on: spleen
# Assay: Transcriptional profiling, chronic dosing, EAE mice: spleen
# Type: in vivo
# Conditions: for Number of differentially expressed genes identified: Spleen: EAE, Chronic Dosing
# Experimental: 2011 March 134(Pt3): 678-92. […] FIG. 17 depicts exemplary immunophenotyping panels used to analyze various immune cell populations (e.g., T cells, T regulatory cells, NK cells, B cells, myeloid cells). […] Animals were exposed to CO2 and whole blood collected via cardiac puncture. Two 100 μl aliquots of whole blood were collected in 1.5 mL microcentrifuge tubes and snap frozen in liquid nitrogen. Peripheral (liver, spleen, kidney and jejunum) and CNS brain (cerebellum, hippocampus, striatum and cortex) tissues were harvested and snap frozen in liquid nitrogen, with special care taken to collect tissues of similar size and from the same location. All samples were stored at -80° C. until RNA extraction was conducted. For RNA preparation, frozen tissues were placed in 2 mL RNAse-free 96-well blocks with 1.5 mL QIAzol Lysis Reagent (QIAgen) and a 3.2 mm stainless steel bead (BioSpec Products, Bartlesville, Okla.). Tissues were disrupted for four cycles of 45 seconds in a Mini-Beadbeater (Biospec Products). RNA was extracted in chloroform and the aqueous phase was mixed with an equal volume of 70% ethanol. Extracted RNA was applied to RNeasy 96 plates and purified by the spin method according to the manufacturer's protocol (RNeasy 96 Universal Tissue Protocol, QIAgen, Hilden Germany). […] Washing and staining of the hybridized arrays were completed as described in the GeneChip Expression analysis technical manual for HT plate arrays using the Genechip® Array Station (Affymetrix, Santa Clara, Calif.) with modifications as described in […] et al. The processed GeneChip® plate arrays were scanned using GeneTitan scanner (Affymetrix, Santa Clara, Calif.). Affymetrix scans were subject to quality control (QC) measures. These tests included a visual inspection of the distribution of raw signal intensities and an assessment of RNA degradation, relative log expression (RLE), and normalized unscaled standard error (NUSE). All sample scans that passed these QC metrics were included in the analysis. All CEL files were subjected to GC-content-based Robust Multi-array Average (GCRMA) normalization (version 2.20.0) (Irizarry R A, et al. Nucleic Acids Res 2003; 31:e15; Li C, et al. Genome Biol 2001; 2:[…]0032). […] Stat Appl Genet Mol Biol 2004; 3:Article3). […] Springer Science+Business Media 2005).
smiles,measurement,setting,value
"COC(=O)/C=C/C(=O)OC [DMF, dimethyl fumarate]",Number of differentially expressed genes identified: Spleen,"100 mpk DMF-vs-90 mpk MMF, 7 h after last dosing",3
same,Number of differentially expressed genes identified: Spleen,"100 mpk DMF-vs-90 mpk MMF, 12 h after last dosing",4
same,Number of differentially expressed genes identified: Spleen,"100 mpk DMF-vs-Vehicle, 7 h after last dosing",12
same,Number of differentially expressed genes identified: Spleen,"100 mpk DMF-vs-Vehicle, 12 h after last dosing",7
same,FC Ear1 (1421802_PM_at),"spleen, 100DMF-vs-90MMF, 7 h",−3.57
same,FC Epx (1449136_PM_at),"spleen, 100DMF-vs-90MMF, 7 h",−3.20
same,FC Prg2 (1422873_PM_at),"spleen, 100DMF-vs-90MMF, 7 h",−2.10
same,FC Angptl4 (1417130_PM_s_at),"spleen, 100DMF-vs-90MMF, 12 h",1.97
same,FC Zbtb16 (1419874_PM_x_at),"spleen, 100DMF-vs-90MMF, 12 h",1.95
same,FC Zbtb16 (1442025_PM_a_at),"spleen, 100DMF-vs-90MMF, 12 h",2.29
same,FC Zbtb16 (1442026_PM_at),"spleen, 100DMF-vs-90MMF, 12 h",2.36
same,FC 4930519L02Rik (1454269_PM_s_at),"spleen, 100DMF-vs-Veh, 7 h",1.66
same,FC Adamts4 (1455965_PM_at),"spleen, 100DMF-vs-Veh, 7 h",−1.51
same,FC Aox1 (1419435_PM_at),"spleen, 100DMF-vs-Veh, 7 h",1.88
same,FC Gsta3 (1423436_PM_at),"spleen, 100DMF-vs-Veh, 7 h",2.02
same,FC Gsta3 (1423437_PM_at),"spleen, 100DMF-vs-Veh, 7 h",1.94
same,FC LOC677317 /// Me1 1416632_PM_at,"spleen, 100DMF-vs-Veh, 7 h",1.61
same,FC Nqo1 (1423627_PM_at),"spleen, 100DMF-vs-Veh, 7 h",2.27
same,FC Pir (1429001_PM_at),"spleen, 100DMF-vs-Veh, 7 h",2.74
same,FC Srxn1 (1419942_PM_at),"spleen, 100DMF-vs-Veh, 7 h",2.31
same,FC Srxn1 (1426875_PM_s_at),"spleen, 100DMF-vs-Veh, 7 h",2.29
same,FC Srxn1 (1451680_PM_at),"spleen, 100DMF-vs-Veh, 7 h",2.14
same,FC Steap4 (1425829_PM_a_at),"spleen, 100DMF-vs-Veh, 7 h",−1.88
same,FC Dbp (1418174_PM_at),"spleen, 100DMF-vs-Veh, 12 h",−1.65
same,FC Dbp (1438211_PM_s_at),"spleen, 100DMF-vs-Veh, 12 h",−1.78
same,FC Ighg (1424631_PM_a_at),"spleen, 100DMF-vs-Veh, 12 h",−1.52
same,FC Srxn1 (1419942_PM_at),"spleen, 100DMF-vs-Veh, 12 h",1.85
same,FC Srxn1 (1426875_PM_s_at),"spleen, 100DMF-vs-Veh, 12 h",1.90
same,FC Srxn1 (1451680_PM_at),"spleen, 100DMF-vs-Veh, 12 h",1.60
same,"Zbtb16 transcript signal, DMF-treated compared to MMF-treated animals","spleen, chronically dosed EAE mice, 12 h after final dosing",increased signal
"COC(=O)/C=C/C(=O)O [MMF, monomethyl fumarate]",Number of differentially expressed genes identified: Spleen,"90 mpk MMF-vs-Vehicle, 7 h after last dosing",23
same,Number of differentially expressed genes identified: Spleen,"90 mpk MMF-vs-Vehicle, 12 h after last dosing",9
same,FC 1441413_PM_at (no gene symbol),"spleen, 100MMF-vs-Veh, 7 h",1.54
same,FC 1451626_PM_x_at (no gene symbol),"spleen, 100MMF-vs-Veh, 7 h",1.55
same,FC 2810037O22Rik (1428866_PM_at),"spleen, 100MMF-vs-Veh, 7 h",−1.88
same,FC 4930519L02Rik (1454269_PM_s_at),"spleen, 100MMF-vs-Veh, 7 h",1.78
same,FC Aox1 (1419435_PM_at),"spleen, 100MMF-vs-Veh, 7 h",1.91
same,FC Cacnb3 (1448656_PM_at),"spleen, 100MMF-vs-Veh, 7 h",−1.58
same,FC Figf /// LOC100047108 (1438953_PM_at),"spleen, 100MMF-vs-Veh, 7 h",1.57
same,FC Gsta3 (1423436_PM_at),"spleen, 100MMF-vs-Veh, 7 h",1.74
same,FC Gsta3 (1423437_PM_at),"spleen, 100MMF-vs-Veh, 7 h",1.61
same,FC Higd1c /// Mettl7a1 /// Mettl7a2 1434150_PM_a_at,"spleen, 100MMF-vs-Veh, 7 h",1.57
same,FC Kcnh1 (1435994_PM_at),"spleen, 100MMF-vs-Veh, 7 h",−1.60
same,FC Lmcd1 1424596_PM_s_at,"spleen, 100MMF-vs-Veh, 7 h",−1.74
same,FC Mmp16 (1437568_PM_at),"spleen, 100MMF-vs-Veh, 7 h",−1.56
same,FC Nqo1 (1423627_PM_at),"spleen, 100MMF-vs-Veh, 7 h",2.35
same,FC Pdk4 (1417273_PM_at),"spleen, 100MMF-vs-Veh, 7 h",1.68
same,FC Pir (1429001_PM_at),"spleen, 100MMF-vs-Veh, 7 h",2.67
same,FC Socs3 (1416576_PM_at),"spleen, 100MMF-vs-Veh, 7 h",−1.79
same,FC Srxn1 (1419942_PM_at),"spleen, 100MMF-vs-Veh, 7 h",2.29
same,FC Srxn1 (1426875_PM_s_at),"spleen, 100MMF-vs-Veh, 7 h",2.26
same,FC Srxn1 (1451680_PM_at),"spleen, 100MMF-vs-Veh, 7 h",2.05
same,FC Steap4 (1425829_PM_a_at),"spleen, 100MMF-vs-Veh, 7 h",−1.91
same,FC Steap4 (1460197_PM_a_at),"spleen, 100MMF-vs-Veh, 7 h",−2.48
same,FC Txnrd1 (1424486_PM_a_at),"spleen, 100MMF-vs-Veh, 7 h",1.69
same,FC 2810037O22Rik (1428866_PM_at),"spleen, 100MMF-vs-Veh, 12 h",−1.55
same,FC Dbp (1418174_PM_at),"spleen, 100MMF-vs-Veh, 12 h",−1.85
same,FC Dbp (1438211_PM_s_at),"spleen, 100MMF-vs-Veh, 12 h",−1.90
same,FC Dclre1a (1432097_PM_a_at),"spleen, 100MMF-vs-Veh, 12 h",1.56
same,FC Nqo1 (1423627_PM_at),"spleen, 100MMF-vs-Veh, 12 h",2.05
same,FC Nr1d1 (1426464_PM_at),"spleen, 100MMF-vs-Veh, 12 h",−1.76
same,FC Nr1d2 (1416958_PM_at),"spleen, 100MMF-vs-Veh, 12 h",−1.53
same,FC Srxn1 (1419942_PM_at),"spleen, 100MMF-vs-Veh, 12 h",1.73
same,FC Srxn1 (1426875_PM_s_at),"spleen, 100MMF-vs-Veh, 12 h",1.75
